Assay results published in paper PMC6778101 (Nature Communications, 2019).
“Also recorded” adds a separate entry of the source. Like-named read-outs stand apart in the source and are kept apart here. Ends that are not written are not given here. Peptide text beside a SMILES is read from it.

Legend:
E. coli K-12 BW25113 = assay: Laboratory evolution of resistance, MIC fold change of adapted lines; assay type: cell-based, Escherichia coli; settings: for MIC fold change following 20 transfers: Escherichia coli K-12 BW25113; for MIC fold change after the evolution: MIC evolved / MIC control, 20 transfers, ~120 generations
Excerpt: Our first goal was to study resistance evolution against a set of AMPs and antibiotics. We have followed established protocols with minor modifications to evolve bacterial populations under controlled laboratory conditions[19],[20]. The applied protocol aims to maximize the level of drug resistance in the evolving populations achieved during a fixed time period. We have initiated a laboratory evolution experiment, starting with a single clone of Escherichia coli K-12 BW25113 (abbreviated as E. coli K-12 BW25113). Parallel evolving populations were exposed to increasing concentrations of one of 14 AMPs (Supplementary Table 1). Peptides were chosen based on the following criteria: diverse sources (synthetic/natural), different putative mechanisms of action, structural diversity, and clinical relevance. Another set of populations were exposed to one of 12 clinically relevant antibiotics (Supplementary Table 2), using the same protocol. Accordingly, we have propagated 10 independent populations in the presence of each AMP or antibiotic for ∼120 generations. We isolated a single, representative clone from each population, resulting in 140 AMP-adapted lines and 120 antibiotic-adapted lines. Throughout the paper, we compare the level of resistance in the evolved lines to the corresponding wild-type strain by measuring changes in the drugs’ minimum inhibitory concentrations (MIC).
(§1) The evolutionary protocol was designed to avoid population extinction and to ensure that populations with the highest level of resistance were propagated further. Starting with a subinhibitory drug concentration (Supplementary Data 8), resulting in ~50% growth inhibition, 10 parallel populations per drug were allowed to grow in Minimal Salts medium for 72 h and 300 r.p.m. E. coli K-12 BW25113 and E. coli mutD5 populations were incubated at 30 °C, while E. coli ATCC 25922, S. enterica LT2, K. pneumonia ATCC 10031, and A. baumannii ATCC 17978 were incubated at 37 °C. […] Prior to each transfer, cell growth was monitored by measuring the optical density at 600 nm (OD600 value, Biotek Synergy 2 microplate reader). Only populations with the highest drug concentration (and reaching OD600 > 0.2) were selected for further evolution. A chess-board layout was used on the plate to monitor potential cross-contamination events. […] E. coli mutD5 was adapted to TPII, also in 10 parallel evolving populations.
(§2) MICs were determined using a standard serial broth dilution technique. Briefly, 11-step serial dilutions were prepared in 96-well microtiter plates with three replicates per strain and antimicrobial compound. Each experiment was repeated at least twice. 5 × 10^5 cells/mL were inoculated into each well, and the plates were incubated at 30 °C in case of E. coli K-12 BW25113, and its antibiotic and AMP-adapted lines, or 37 °C in case of the other bacterial species. Plates were shaken at 300 r.p.m. during incubation for 24 and 18 h, respectively. Cell growth was monitored by measuring the optical density (OD600 value, Biotek Synergy 2 microplate reader was used for this purpose). […] Relative MIC was calculated as follows: MICrelative = MICevolved/MICcontrol.

S. enterica LT2 = assay type: cell-based, Salmonella enterica subsp. enterica serovar Typhimurium; settings: broth dilution, 37 °C, 18 h
Procedure: (§3) Unless otherwise indicated, we used E. coli K-12 BW25113 in all high-throughput experiments. To investigate the impact of mutation rate on evolution of AMP resistance, we initiated laboratory evolution with a mutator strain E. coli mutD5 that carries mutations in the dnaQ gene (L73W and A164V).
as §2

E. coli mutD5 = assay: Laboratory evolution of resistance in mutator strain, MIC fold change; assay type: cell-based, Escherichia coli; settings: for MIC fold change after the evolution: mutD5 mutator strain (*)
Excerpt: as §3, §1, §2

[1] = system: E. coli K-12 BW25113 carrying single mutations; assay: MIC change in single-mutation strains (basS L194R, mlaD a342del, waaY M1†); assay type: cell-based, Escherichia coli
E.coli K-12 BW25113 = assay type: cell-based, Escherichia coli; settings: for MIC (freshly prepared AMP): plates inoculated immediately; for MIC (pre-incubated AMP): plates pre-incubated 72 hours before inoculation
Procedure: as §2
Supplementary Table 7- Effect of incubation time on the minimum inhibitory concentration (MIC) of AMPs. We tested whether the prolonged incubation time can affect the MIC of AMPs. To test this, two sets of AMP containing MIC plates were prepared in parallel. The first set was immediately inoculated with E.coli K-12 BW25113, while the second set was pre-incubated 72 hours before inoculation with the […]
observed in the MIC between freshly prepared and pre-incubated plates. […]

Human red blood cells = settings: previous work; cited from earlier work
Excerpt: Finally, our work identifies that TPII and CP1 are promising candidates for future therapeutic considerations, for the following reasons. They are active against a wide range of bacterial pathogens with a relatively high activity/toxicity (ATI) index. We note however, that existing data on the toxicity of the tachyplesin antimicrobial family are controversial[48],[59]–[61]. […] Furthermore, evolution of resistance against these AMPs is improbable in E. coli. We propos ...

A. baumannii ATCC 17978 = assay type: cell-based, Acinetobacter baumannii; settings: Acinetobacter baumannii ATCC 17978; broth dilution, 37 °C, 18 h
Procedure: as §3, §2

[2] = parallel line 1 of 10 adapted to the agent
[3] = time allowed for bacterial growth 24 hours
[4] = time allowed for bacterial growth 48 hours
[5] = time allowed for bacterial growth 72 hours

## NC[C@H]1O[C@H](O[C@H]2[C@H](O)[C@@H](O[C@H]3O[C@H](CO)[C@@H](O)[C@H](N)[C@H]3O)[C@H](N)C[C@@H]2N)[C@H](O)[C@@H](O)[C@@H]1O [KAN, Kanamycin]
E. coli K-12 BW25113; [2]
  MIC fold change following 20 transfers: 256 fold
E. coli K-12 BW25113; parallel line 2 of 10 adapted to the agent
  MIC fold change following 20 transfers: 256 fold
E. coli K-12 BW25113; parallel line 3 of 10 adapted to the agent
  MIC fold change following 20 transfers: 177 fold
E. coli K-12 BW25113; parallel line 4 of 10 adapted to the agent
  MIC fold change following 20 transfers: 177 fold
E. coli K-12 BW25113; parallel line 5 of 10 adapted to the agent
  MIC fold change following 20 transfers: 93 fold
E. coli K-12 BW25113; parallel line 6 of 10 adapted to the agent
  MIC fold change following 20 transfers: 256 fold
E. coli K-12 BW25113; parallel line 7 of 10 adapted to the agent
  MIC fold change following 20 transfers: 256 fold
E. coli K-12 BW25113; parallel line 8 of 10 adapted to the agent
  MIC fold change following 20 transfers: 49 fold
E. coli K-12 BW25113; parallel line 9 of 10 adapted to the agent
  MIC fold change following 20 transfers: 177 fold
E. coli K-12 BW25113; parallel line 10 of 10 adapted to the agent
  MIC fold change following 20 transfers: 93 fold
E. coli K-12 BW25113; parallel-evolved line 1
  MIC fold change after the evolution: 256
E. coli K-12 BW25113; parallel-evolved line 2
  MIC fold change after the evolution: 256
E. coli K-12 BW25113; parallel-evolved line 3
  MIC fold change after the evolution: 177
E. coli K-12 BW25113; parallel-evolved line 4
  MIC fold change after the evolution: 177
E. coli K-12 BW25113; parallel-evolved line 5
  MIC fold change after the evolution: 93
E. coli K-12 BW25113; parallel-evolved line 6
  MIC fold change after the evolution: 256
E. coli K-12 BW25113; parallel-evolved line 7
  MIC fold change after the evolution: 256
E. coli K-12 BW25113; parallel-evolved line 8
  MIC fold change after the evolution: 49
E. coli K-12 BW25113; parallel-evolved line 9
  MIC fold change after the evolution: 177
E. coli K-12 BW25113; parallel-evolved line 10
  MIC fold change after the evolution: 93

## CC[C@H](C)[C@@H]1NC(=O)CNC(=O)[C@H](CCCNC(=N)N)NC(=O)[C@H](Cc2ccc(O)cc2)NC(=O)[C@@H]2CSSC[C@H](NC1=O)C(=O)N[C@@H](Cc1ccc(O)cc1)C(=O)N[C@@H](CCCNC(=N)N)C(=O)N[C@@H](CCCCN)C(=O)N[C@H](C(=O)N[C@@H](CCCNC(=N)N)C(N)=O)CSSC[C@H](NC(=O)[C@H](Cc1c[nH]c3ccccc13)NC(=O)[C@@H](N)CCCNC(=N)N)C(=O)N[C@@H](Cc1ccccc1)C(=O)N[C@@H](CCCNC(=N)N)C(=O)N[C@@H](C(C)C)C(=O)N2 [TPII, tachyplesin II] (HELM PEPTIDE1{R.W.C.F.R.V.C.Y.R.G.I.C.Y.R.K.C.R.[am]}$PEPTIDE1,PEPTIDE1,3:R3-16:R3|PEPTIDE1,PEPTIDE1,7:R3-12:R3$$$V2.0; N-terminus and C-terminus assumed; bridges inferred)
S. enterica LT2; starting strain, MS medium
  MIC: 4 µg/mL
E. coli mutD5; 10 laboratory evolved E. coli K-12 mutD5 populations
  resistance in evolved mutator populations (in words): none of the 10 laboratory evolved mutator E. coli K-12 mutD5 populations displayed resistance; also recorded: failed to develop resistance
E. coli mutD5; Escherichia coli mutD5 mutator strain, parallel line 1 of 10
  MIC fold change following 20 transfers: 1.4 fold
E. coli mutD5; parallel-evolved line 1
  MIC fold change after the evolution: 1
E. coli mutD5; parallel-evolved line 2
  MIC fold change after the evolution: 1
E. coli mutD5; parallel-evolved line 3
  MIC fold change after the evolution: 1
E. coli mutD5; parallel-evolved line 4
  MIC fold change after the evolution: 1
E. coli mutD5; parallel-evolved line 5
  MIC fold change after the evolution: 1
E. coli mutD5; parallel-evolved line 6
  MIC fold change after the evolution: 1
E. coli mutD5; parallel-evolved line 7
  MIC fold change after the evolution: 1
E. coli mutD5; parallel-evolved line 8
  MIC fold change after the evolution: 1
E. coli mutD5; parallel-evolved line 9
  MIC fold change after the evolution: 1
E. coli mutD5; parallel-evolved line 10
  MIC fold change after the evolution: 1
[1]; mutations inserted individually into E. coli K-12 BW25113
  resistance conferred by single mutations basS L194R, mlaD a342del, waaY M1† (in words): no resistance
[1]; strain with reinserted mutation basS L194R (CTG→CGG)
  Relative MIC compared to the wild-type: 1.0
[1]; strain with reinserted mutation mlaD a342del
  Relative MIC compared to the wild-type: 1.0
[1]; strain with reinserted mutation waaY M1† (ATG→CTG)
  Relative MIC compared to the wild-type: 1.0
E. coli K-12 BW25113; [2]
  MIC fold change following 20 transfers: 1.0 fold
E. coli K-12 BW25113; average of MIC fold change of the 10 independently adapted populations
  average MIC fold change after the evolution: 1.000
E. coli K-12 BW25113; parallel-evolved line 1
  MIC fold change after the evolution: 1
E. coli K-12 BW25113; parallel-evolved line 2
  MIC fold change after the evolution: 1
E. coli K-12 BW25113; parallel-evolved line 3
  MIC fold change after the evolution: 1
E. coli K-12 BW25113; parallel-evolved line 4
  MIC fold change after the evolution: 1
E. coli K-12 BW25113; parallel-evolved line 5
  MIC fold change after the evolution: 1
E. coli K-12 BW25113; parallel-evolved line 6
  MIC fold change after the evolution: 1
E. coli K-12 BW25113; parallel-evolved line 7
  MIC fold change after the evolution: 1
E. coli K-12 BW25113; parallel-evolved line 8
  MIC fold change after the evolution: 1
E. coli K-12 BW25113; parallel-evolved line 9
  MIC fold change after the evolution: 1
E. coli K-12 BW25113; parallel-evolved line 10
  MIC fold change after the evolution: 1
E. coli K-12 BW25113; ~120 generations under increasing drug concentration
  resistance in evolved lines after laboratory evolution (in words): failed to detect any resistance
E.coli K-12 BW25113; [3]
  MIC (freshly prepared AMP): 5 µg/mL
  MIC (pre-incubated AMP): 6 µg/mL
E.coli K-12 BW25113; [4]
  MIC (freshly prepared AMP): 5 µg/mL
  MIC (pre-incubated AMP): 6 µg/mL
E.coli K-12 BW25113; [5]
  MIC (freshly prepared AMP): 5 µg/mL
  MIC (pre-incubated AMP): 6 µg/mL

## SWLSKTAKKLENSAKKRISEGIAIAIQGGPR [CP1, Cecropin P1]
S. enterica LT2; Salmonella enterica subsp. enterica serovar Typhimurium LT2
  MIC: 1.2 to 2.4 µM
Human red blood cells
  toxicity or haemolytic activity (in words): negligible toxicity or haemolytic activity
A. baumannii ATCC 17978
  MIC: 0.6 to 1.2 µM
